Data taken from ChEMBL document CHEMBL1201862, “PubChem BioAssay data set” (2004).
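Five compound concentrations were applied to cells in 96-well plates for 48 hours; endpoints were derived by simple linear interpolation of the resulting dose-response curve. At the GI50, growth is halved.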 The source made the active and inactive calls. Rule as the data show it: active = GI50 up to about 1.1 µM and inactive = higher.

How the values were obtained:
Experiment in all cases: DTP human tumour cell line panel, 48 h
ACHN = system: ACHN
DLD-1 = system: DLD-1
HCT-116 = system: HCT-116
HCT-15 = system: HCT-15
HT-29 = system: HT-29
KM12 = system: KM12
MOLT-4 = system: MOLT-4
NCI-H226 = system: NCI-H226
NCI-H522 = system: NCI-H522
OVCAR-8 = system: OVCAR-8
RPMI-8226 = system: RPMI-8226
RXF 393 = system: RXF 393
SF-539 = system: SF-539
SK-OV-3 = system: SK-OV-3
TK-10 = system: TK-10
U-251 = system: U-251
UACC-257 = system: UACC-257
DU-145 = system: DU-145
MCF7 = system: MCF7
SR = system: SR

SMILES	GI50 (ACHN)	GI50 (DLD-1)	GI50 (HCT-116)	GI50 (HCT-15) [µM]	GI50 (HT-29)	GI50 (KM12)	GI50 (MOLT-4)	GI50 (NCI-H226)	GI50 (NCI-H522)	GI50 (OVCAR-8)	GI50 (RPMI-8226)	GI50 (RXF 393)	GI50 (SF-539)	GI50 (SK-OV-3)	GI50 (TK-10)	GI50 (U-251)	GI50 (UACC-257)	GI50 (DU-145)	GI50 (MCF7)	GI50 (SR)
OCC(O)C(O)C(O)c1nn(-c2ccc(F)cc2)c2nc3cc(Cl)c(Cl)cc3nc12 (configuration not stated)	> 10 µM (inactive)	32.7 µM (inactive)	24.5 µM (inactive)	53.3	56 µM (inactive)	23.3 µM (inactive)	18.8 µM (inactive)	24.2 µM (inactive)	14.9 µM (inactive)	11 µM (inactive)	36.4 µM (inactive)	15.6 µM (inactive)	13.9 µM (inactive)	23.3 µM (inactive)	21.5 µM (inactive)	29.8 µM (inactive)	21.4 µM (inactive)			
Brc1cc(C2OCCCO2)ccc1OCc1ccccc1	73.6 µM (inactive)	37 µM (inactive)		48	17.5 µM (inactive)	33.7 µM (inactive)	24.9 µM (inactive)	73.1 µM (inactive)	26.9 µM (inactive)	57.3 µM (inactive)	25.9 µM (inactive)	67.9 µM (inactive)	64.3 µM (inactive)	> 100 µM (inactive)	40.7 µM (inactive)		31.9 µM (inactive)			
O=C(/C=C/c1c(O)ccc2ccccc12)c1ccccc1Cl	34.3 µM (inactive)	31.1 µM (inactive)	21.2 µM (inactive)	36.4	46.5 µM (inactive)	38.5 µM (inactive)	33.4 µM (inactive)	> 100 µM (inactive)	26.7 µM (inactive)	32 µM (inactive)	27.7 µM (inactive)	26.2 µM (inactive)	26.5 µM (inactive)	> 100 µM (inactive)	> 100 µM (inactive)	37.8 µM (inactive)	19.7 µM (inactive)			
N#C/C(=C\c1cc(OCc2ccccc2)c(OCc2ccccc2)cn1)C(N)=O	> 100 µM (inactive)	> 100 µM (inactive)	35.5 µM (inactive)	> 100	> 100 µM (inactive)	> 100 µM (inactive)	23.3 µM (inactive)	> 100 µM (inactive)	19.1 µM (inactive)	> 100 µM (inactive)	36.6 µM (inactive)	> 100 µM (inactive)	> 100 µM (inactive)	> 100 µM (inactive)	> 100 µM (inactive)	> 100 µM (inactive)	> 100 µM (inactive)			
O=C1C2CC=CCC2C(=O)C12CCc1ccccc12 (configuration not stated)	> 100 µM (inactive)	> 100 µM (inactive)		> 100	> 100 µM (inactive)					> 100 µM (inactive)		> 100 µM (inactive)		> 100 µM (inactive)	> 100 µM (inactive)	> 100 µM (inactive)				
CC(C)[Si](OC/C(=C/COC(C)(C)C)[C@H]1CC=C(C(=O)c2ccccc2N2CN(C)C(=O)N(C)C2)C1)(C(C)C)C(C)C	14.7 µM (inactive)		2.3 µM (inactive)	12.3	5.75 µM (inactive)	13.7 µM (inactive)	0.366 µM (active)	14.6 µM (inactive)	7.41 µM (inactive)	5.55 µM (inactive)	6.05 µM (inactive)	4.02 µM (inactive)	6.78 µM (inactive)	15.6 µM (inactive)	10.1 µM (inactive)	10.1 µM (inactive)	6.28 µM (inactive)	13.5 µM (inactive)	4.47 µM (inactive)	2.14 µM (inactive)
Nc1ccc(Nc2c3ccccc3nc3ccccc23)cc1	1.89 µM (inactive)		3.15 µM (inactive)	2.84	3.49 µM (inactive)	8.05 µM (inactive)	0.568 µM (active)	1.38 µM (inactive)	4.79 µM (inactive)	3.31 µM (inactive)	4.49 µM (inactive)	> 10 µM (inactive)	3.7 µM (inactive)	5.5 µM (inactive)	5.98 µM (inactive)	4.4 µM (inactive)	> 10 µM (inactive)	4.92 µM (inactive)	2.2 µM (inactive)	> 10 µM (inactive)
COc1ccc(CNc2cnc3ccc(N)cc3n2)cc1	> 100 µM (inactive)	> 100 µM (inactive)	0.0622 µM (active)	> 100	> 100 µM (inactive)	> 100 µM (inactive)	24.7 µM (inactive)	> 100 µM (inactive)	> 100 µM (inactive)	> 100 µM (inactive)	81.8 µM (inactive)		> 100 µM (inactive)		> 100 µM (inactive)		> 100 µM (inactive)			
CN(C)CCNC(=O)c1cccc2[nH]c(-c3cccnc3)nc12	16.9 µM (inactive)	22.2 µM (inactive)	9.55 µM (inactive)	24.8	27.4 µM (inactive)	36.5 µM (inactive)	25.8 µM (inactive)	22.4 µM (inactive)		17.5 µM (inactive)		16.9 µM (inactive)	17.7 µM (inactive)	22.6 µM (inactive)	19.8 µM (inactive)	22.6 µM (inactive)	18.5 µM (inactive)			
